For one assay, the system named is HEK293. In words: cells. The conditions noted are these: ASSAY_TEST Inhibition of Cell Viability, detection method Resazurin, Fluorescence (ex560/em590), MEDIA DMEM with 10% FBS, plate type 384well, TC, CORNING #3712, time 18 hr. It counts as functional, Homo sapiens, ATCC CRL1573. A general note: The colour change of resazurin is a common sign of viable cells or microbes.

A further assay deals with Candida albicans. In words: microbe, parasite or virus in culture. The conditions noted are these: ATCC 90028, ASSAY_TEST Inhibition of Fungal Growth, detection method Absorption (OD530), plate type 384well, NBS, CORNING #3640.
For assay [1], the system named is Klebsiella pneumoniae. In words: microbe, parasite or virus in culture. The conditions noted are these: ATCC 700603, 18 h, ASSAY_TEST Inhibition of Bacterial Growth, detection method Absorption (OD600), MEDIA CAMHB, plate type 384well, NBS, CORNING #3640.
Description: (§1) Antibacterial activity against Klebsiella pneumoniae MDR ATCC 70063 (CO-ADD:GN_003); MIC in CAMBH media using NBS plates, by OD(600)
Assay [2] has as its system Escherichia coli. Nature of the assay: microbe, parasite or virus in culture. The conditions noted are these: ATCC 25922, 18 h, ASSAY_TEST Inhibition of Bacterial Growth, detection method Absorption (OD600), MEDIA CAMHB, plate type 384well, NBS, CORNING #3640.
In assay [3] the test system is Pseudomonas aeruginosa. In words: microbe, parasite or virus in culture. The conditions noted are these: ATCC 27853, 18 h, ASSAY_TEST Inhibition of Bacterial Growth, detection method Absorption (OD600), MEDIA CAMHB, plate type 384well, NBS, CORNING #3640.
Description: (§2) Antibacterial activity against Pseudomonas aeruginosa ATCC 27853 (CO-ADD:GN_042); MIC in CAMBH media using NBS plates, by OD(600)
Assay [4] concerns Acinetobacter baumannii. In words: microbe, parasite or virus in culture. The conditions noted are these: ATCC 19606, 18 h, ASSAY_TEST Inhibition of Bacterial Growth, detection method Absorption (OD600), MEDIA CAMHB, plate type 384well, NBS, CORNING #3640.
The subject of assay [5] is Staphylococcus aureus. Nature of the assay: microbe, parasite or virus in culture. The conditions noted are these: ATCC 43300, 18 h, ASSAY_TEST Inhibition of Bacterial Growth, detection method Absorption (OD600), MEDIA CAMHB, plate type 384well, NBS, CORNING #3640.
The subject of assay [6] is Acinetobacter baumannii. In words: Antibacterial activity against Acinetobacter baumannii ATCC 19606 (CO-ADD:GN_034); MIC in CAMBH media using NBS plates, by OD600. The conditions noted are these: Concentration 32.0 ug.mL-1.
The subject of assay [7] is Escherichia coli. Nature of the assay: Antibacterial activity against Escherichia coli ATCC 25922 (CO-ADD:GN_001); MIC in CAMBH media using NBS plates, by OD(600). The conditions noted are these: Concentration 32.0 ug.mL-1.
For assay [8], the system named is Pseudomonas aeruginosa. The conditions noted are these: ATCC 27853, Concentration 32.0 ug.mL-1.
Description: as §2
Assay [9] concerns Staphylococcus aureus. Nature of the assay: Antibacterial activity against Staphylococcus aureus MRSA ATCC 43300 (CO-ADD:GP_020); MIC in CAMBH media, using NBS plates, by OD(600). The conditions noted are these: Concentration 32.0 ug.mL-1.
The test system of assay [10] is Klebsiella pneumoniae. The conditions noted are these: ATCC 700603, Concentration 32.0 ug.mL-1.
Description: as §1
The mark [11] stands for this setting: Homo sapiens, ATCC CRL1573, HEK293, read-out: CC50.

Converted amounts (≈) assume the structure as drawn.

Description for Candida albicans: Antifungal activity against Candida albicans ATCC 90028 (CO-ADD:FG_001); MIC in YNB media using NBS plates, by OD630
Description for Cryptococcus neoformans: Antifungal activity against Cryptococcus neoformans H99 ATCC 208821 (CO-ADD:FG_002); MIC in YNB media using NBS plates, by Resazurin OD(600-570)

`Cc1cn2cc([N+](=O)[O-])nc2c(OCc2ccc(OC(F)(F)F)cc2)n1` showed a CC50 with HEK293 of over 100.

As to `O=C(O)C(F)(F)F.O=c1nc(N2CCN(CC3CCCCC3)CC2)sc2c([N+](=O)[O-])cc(C(F)(F)F)cc12`, the CC50 with HEK293 was over 50.

`CCOC(=O)c1nc([N+](=O)[O-])c[nH]1` registered a CC50 in the assay with HEK293 of over 100.

With `Cc1cn2cc([N+](=O)[O-])nc2c(=O)n1Cc1ccc(OC(F)(F)F)cc1`, the CC50 in the assay with HEK293 is over 100.

Regarding `Cn1c([N+](=O)[O-])cnc1C(=O)OC1CCCCC1`, the MIC with Candida albicans, in the assay with Klebsiella pneumoniae [1], with Cryptococcus neoformans, against Escherichia coli [2], against Pseudomonas aeruginosa [3] and in the assay on Acinetobacter baumannii [4] was over 32 µg/mL in each case. Moreover, the MIC in the assay with Staphylococcus aureus [5] is over 32 µg/mL. Further, in the assay on HEK293 (setting [11]), the CC50 is over 32 µg/mL.

`CC(=O)OCCn1c(C)cn2cc([N+](=O)[O-])nc2c1=O`: the CC50 in the assay on HEK293 was over 100.

With `CN(Cc1ccccc1)C(=O)c1ncc([N+](=O)[O-])n1C`, the MIC in the assay on Candida albicans, against Klebsiella pneumoniae [1], in the assay with Cryptococcus neoformans, in the assay with Escherichia coli [2], in the assay with Pseudomonas aeruginosa [3] and in the assay with Acinetobacter baumannii [4] was over 32 µg/mL each time. The compound further showed an MIC in the assay with Staphylococcus aureus [5] of over 32 µg/mL. For the same compound, the CC50 with HEK293 (setting [11]) was over 32 µg/mL.

In the assay on HEK293, `O=[N+]([O-])c1cn2ccnc(OCCc3ccc(OC(F)(F)F)cc3)c2n1` gave a CC50 of over 100.

The compound `Cc1cn2cc([N+](=O)[O-])nc2c(=O)n1CCO` came in with a CC50 with HEK293 of over 100.

In the assay on HEK293, `NC(=O)c1nc([N+](=O)[O-])cn1CCO` showed a CC50 of over 100.

`Cc1[nH]c(=O)c2nc([N+](=O)[O-])cn2c1C` returned a CC50 with HEK293 of over 100.

For the compound `Cn1c([N+](=O)[O-])cnc1C(=O)NC1CCCCC1`, the MIC in the assay with Candida albicans, against Klebsiella pneumoniae [1], with Cryptococcus neoformans, in the assay on Escherichia coli [2], against Pseudomonas aeruginosa [3] and with Acinetobacter baumannii [4] was over 32 µg/mL each time. In the assay with Staphylococcus aureus [5], this compound displayed an MIC of over 32 µg/mL. Further, the CC50 with HEK293 (setting [11]) is over 32 µg/mL.

Compound `CN(Cc1ccc(OC(F)F)cc1)C(=O)c1ncc([N+](=O)[O-])[nH]1` showed an MIC against Staphylococcus aureus [5] of 16 µg/mL (≈ 49 µM).

In the assay on HEK293, `O=c1[nH]c(-c2ccc(OC(F)(F)F)cc2)cn2cc([N+](=O)[O-])nc12` gave a CC50 of over 100.

In the assay on HEK293, `Cc1c(C)n2cc([N+](=O)[O-])nc2c(=O)n1Cc1ccc(OC(F)(F)F)cc1` displayed a CC50 of over 100.

In the assay on HEK293, `CC(=O)OCCOc1nc(C)cn2cc([N+](=O)[O-])nc12` came in with a CC50 of over 100.

Compound `Cc1ccc(CNC(=O)c2nc([N+](=O)[O-])c[nH]2)cc1` returned an MIC against Staphylococcus aureus [5] of 32 µg/mL (≈ 123 µM).

With `O=C(NO)c1nc([N+](=O)[O-])cn1Cc1ccc(OC(F)(F)F)cc1`, the CC50 with HEK293 was 36.

In the case of `O=C(NCc1cccc(OC(F)(F)F)c1)c1ncc([N+](=O)[O-])[nH]1`, the MIC against Staphylococcus aureus [5] came out at 16 µg/mL (≈ 48.5 µM).

In turn, `CCOC(=O)c1nc([N+](=O)[O-])cn1Cc1ccc(OC(F)(F)F)cc1` returned a CC50 with HEK293 of over 100.

Consider `CNC(=O)c1nc([N+](=O)[O-])cn1Cc1ccc(OC(F)(F)F)cc1`, for which the CC50 in the assay on HEK293 was over 100.

On to `Cc1ccc(CCNC(=O)c2ncc([N+](=O)[O-])[nH]2)cc1`, for which the MIC against Staphylococcus aureus [5] came to 32 µg/mL (≈ 117 µM).

In the case of `NNC(=O)c1nc([N+](=O)[O-])cn1Cc1ccc(OC(F)(F)F)cc1`, in the assay with HEK293, the CC50 is on record as over 100.

Turning to `C[C@H]1COC2(CCN(c3nc(=O)c4cc(C(F)(F)F)cc([N+](=O)[O-])c4s3)CC2)O1` [BTZ-043], in the assay on HEK293, the CC50 is recorded as over 100.

Compound `Cc1nc(OCc2ccc(OC(F)(F)F)cc2)c2nc([N+](=O)[O-])cn2c1C` gave a CC50 in the assay on HEK293 of over 100.

Turning to `CN(C)C(=O)c1nc([N+](=O)[O-])cn1Cc1ccc(OC(F)(F)F)cc1`, the CC50 in the assay with HEK293 is listed as over 100.

In turn, `Cc1cn2cc([N+](=O)[O-])nc2c(OCCO)n1` showed a CC50 in the assay on HEK293 of over 100.

In the case of `CC(NC(=O)c1ncc([N+](=O)[O-])[nH]1)c1ccc(F)cc1` (stereo not given), the inhibition result with Acinetobacter baumannii [6], with Escherichia coli [7], in the assay with Pseudomonas aeruginosa [8], with Staphylococcus aureus [9] and in the assay on Klebsiella pneumoniae [10] was “Average; N=2” in each case.

The compound `Cc1cn2cc([N+](=O)[O-])nc2c(=O)[nH]1` returned a CC50 in the assay on HEK293 of over 100.

Compound `COc1nc(C)cn2cc([N+](=O)[O-])nc12` gave a CC50 in the assay with HEK293 of over 50.

As to `CC(=O)OCCn1c(-c2ccccc2)cn2cc([N+](=O)[O-])nc2c1=O`, the inhibition entry in the assay on Acinetobacter baumannii [6], in the assay on Escherichia coli [7], in the assay on Pseudomonas aeruginosa [8], in the assay with Staphylococcus aureus [9] and in the assay on Klebsiella pneumoniae [10] was “Average; N=2” in each case.

`[N-]=[N+]=NCCOc1nc(-c2ccccc2)cn2cc([N+](=O)[O-])nc12`: the inhibition entry with Acinetobacter baumannii [6], in the assay on Escherichia coli [7], with Pseudomonas aeruginosa [8], in the assay on Staphylococcus aureus [9] and in the assay with Klebsiella pneumoniae [10] was “Average; N=2” throughout.

Values taken from ChEMBL document CHEMBL4513134, “CO-ADD screening of University of Queensland (Australia) compounds” (2021).
